# Laboratory results: US6956040B2, “Oxazolidinone piperazinyl derivatives as potential antimicrobials” (Ranbaxy Laboratories Limited, priority 2001, dated 2005)
# Like-named read-outs stand apart in the source and are kept apart here.
# What was measured:
# [1] = tested on: S. pyogenes 19615; assay: MIC, agar incorporation method; assay type: cell-based, Streptococcus pyogenes
# How it was run: (§1)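 Compounds in DMSO were added as doubling dilutions to molten Mueller Hinton agar. Spots of 10^4 CFU, diluted from a 0.5 McFarland suspension (1.5×10^8 CFU/ml), were incubated 18 hours (24 hours for MRSN studies). MIC (μg/ml) is the lowest concentration with no visible growth.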
# [2] = tested on: S. aureus 25923; assay: MIC, agar incorporation method; assay type: cell-based, Staphylococcus aureus
# How it was run: as §1
# [3] = tested on: MRSA 15187; assay: MIC, agar incorporation method; assay type: cell-based, Staphylococcus aureus
# How it was run: as §1
# [4] = Changes in MIC under different conditions: Agar MIC; assay type: cell-based; conditions: strain not given
# Description: (§2) The compounds of the invention display antibacterial activity when tested by the agar incorporation method. The following minimum inhibitory concentrations (μg/ml) were obtained for representative compounds of the invention which are given below in the following tables.
# (§3) Briefly, the compounds were dissolved in DMSO and doubling dilution of the compounds were incorporated into Meuller Hilton agar before solidification. Inoculum was prepared by suspending 4 to 5 colonies into 5 ml of normal saline solution and adjusting the turbidity to 0.5 Macfarland turbidity standard tables (1.5×10^8 CFU/ml), after appropriate dilutions, 10^4 CFU/spot was transfered into the surface of dried plate and incubated for 18 hours (24 hours for MRSN studies). The concentration showing no growth of the inoculated culture was recorded as the MIC. Appropriate ATCC standard strains were simultaneously tested and result recorded only when the MIC's against standard antibiotics were within the acceptable range.
# [5] = tested on: S. pneum 6303; assay: MIC, agar incorporation method; assay type: cell-based, Streptococcus pneumoniae
# How it was run: as §1
# [6] = tested on: MRSA 562; assay: In vivo activity against MRSA 562 (ED50); parameters: species or system Staphylococcus aureus
# [7] = tested on: S. pneum AB 34; assay: MIC, agar incorporation method; assay type: cell-based, Streptococcus pneumoniae
# How it was run: (§4)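 Twofold dilutions of DMSO-dissolved compound in Mueller Hinton agar; spots of 10^4 CFU; 18 h growth. Endpoint: no-growth concentration.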
# [8] = Changes in MIC under different conditions: Broth MIC; assay type: cell-based; conditions: strain not given
# [9] = tested on: E. faecalis 29212; assay: MIC, agar incorporation method; assay type: cell-based, Enterococcus faecalis
# How it was run: as §1
# [10] = tested on: VRE 6A; assay: MIC, agar incorporation method; assay type: cell-based, Enterococcus faecium
# How it was run: as §1
# [11] = tested on: MRSA 562; assay: MIC, agar incorporation method; assay type: cell-based, Staphylococcus aureus
# How it was run: as §4
# [12] = tested on: MRSA 33; assay: MIC, agar incorporation method; assay type: cell-based, Staphylococcus aureus
# How it was run: as §4
# [13] = tested on: S. pneumoniae; assay: Summary of in vitro activity (MIC) against S. pneumoniae; assay type: cell-based, Streptococcus pneumoniae; conditions: for MIC: read-out: Geometric Mean of in vitro activity (MIC)
# Description: as §2, §3
# [14] = tested on: E. faecalis; assay: Summary of in vitro activity (MIC) against E. faecalis; assay type: cell-based, Enterococcus faecalis; conditions: for MIC: read-out: Geometric Mean of in vitro activity (MIC)
# Description: as §2, §3
# [15] = tested on: G+ve; assay: Summary of in vitro activity (MIC) against G+ve bacteria; assay type: cell-based; conditions: for MIC: read-out: Geometric Mean of in vitro activity (MIC)
# Description: as §2, §3
# [16] = tested on: S. aureus; assay: Summary of in vitro activity (MIC) against S. aureus; assay type: cell-based, Staphylococcus aureus; conditions: for MIC: read-out: Geometric Mean of in vitro activity (MIC)
# Description: as §2, §3
# [17] = S. pyogenes 19615, agar incorporation
# [18] = S. aureus 25923, agar incorporation
# [19] = S. pneum 6303, agar incorporation
# [20] = S. pneum AB 34, agar incorporation
# [21] = E. faecalis 29212, agar incorporation
# [22] = MRSA 562, agar incorporation, Table 1
structure (smiles),measurement,setting,value
"CC(=O)NC[C@H]1CN(c2ccc(N3CCN(C(=O)c4ccoc4)CC3)c(F)c2)C(=O)O1 [Compound No. 08, (S)-N[[3-[3-Fluoro-4-[N-1[4-(3-furoyl)]piperazinyl]phenyl]2-oxo-5-oxazolidinyl]methyl]cetamide]",MIC,[1]; [17],1 mg/L
same,MIC,[2]; [18],2 mg/L
same,MIC,"[3]; MRSA 15187, agar incorporation",1 mg/L
same,Agar MIC,[4],1 mg/L
same,MIC,[5]; [19],2 mg/L
same,ED50 (mg/kg body weight) PO,[6],25 mg/kg body weight
same,MIC,[7]; [20],4 mg/L
same,Broth MIC +50% Sheep serum,[8],4 mg/L
same,Broth MIC Normal MH broth,[8],2 mg/L
same,MIC,[9]; [21],1 mg/L
same,MIC,"[10]; VRE 6A, agar incorporation",1 mg/L
same,MIC,"[11]; MRSA 562, Table 5",1 mg/L
same,MIC,[11]; [22],1 mg/L
same,MIC,"[12]; MRSA 33, agar incorporation",1 mg/L
"CC(=O)NC[C@H]1CN(c2ccc(N3CCN(C(=O)c4ccc([N+](=O)[O-])s4)CC3)c(F)c2)C(=O)O1.Cl [Compound No. 29, (S)-N[[3-[3-Fluoro-4-[N-1[4-(5-nitro-2-thienoyl)]piperazinyl]-phenyl]2-oxo-5-oxazolidinyl]methyl]acetamide hydrochloride]",MIC,[1]; [17],1 mg/L
same,MIC,[2]; [18],0.25 mg/L
same,MIC,"[3]; MRSA 15187, agar incorporation",<0.1 mg/L
same,Agar MIC,[4],<0.1 mg/L
same,MIC50,"[13]; S. pneumoniae, Number 19",1 mg/L
same,MIC90,"[13]; S. pneumoniae, Number 19",1 mg/L
same,MIC,[5]; [19],1 mg/L
same,ED50 (mg/kg body weight) PO,[6],>25 mg/kg body weight
same,MIC,[7]; [20],1 mg/L
same,Broth MIC +50% Sheep serum,[8],0.5 mg/L
same,Broth MIC Normal MH broth,[8],0.25 mg/L
same,MIC,[9]; [21],1 mg/L
same,MIC50,"[14]; E. faecalis, Number 7",1 mg/L
same,MIC90,"[14]; E. faecalis, Number 7",1 mg/L
same,MIC50,"[15]; G+ve, Number 49",1 mg/L
same,MIC90,"[15]; G+ve, Number 49",1 mg/L
same,MIC,"[10]; VRE 6A, agar incorporation",0.5 mg/L
same,MIC,"[11]; MRSA 562, Table 5",<0.1 mg/L
same,MIC,[11]; [22],<0.1 mg/L
same,MIC,"[12]; MRSA 33, agar incorporation",<0.1 mg/L
same,MIC50,"[16]; S. aureus, Number 8",0.064 mg/L
same,MIC90,"[16]; S. aureus, Number 8",0.25 mg/L
CC(=O)NC[C@H]1CN(c2ccc(N3CCC(N(C)C(=O)c4ccc([N+](=O)[O-])o4)CC3)c(F)c2)C(=O)O1 [Compound No. 44],MIC,[1]; [17],0.5 mg/L
same,MIC,[2]; [18],0.25 mg/L
same,MIC,"[3]; MRSA 15187, agar incorporation",<0.1 mg/L
same,Agar MIC,[4],<0.1 mg/L
same,Geometric Mean of in vitro activity (MIC),[13]; S. pneumoniae,0.96 mg/L
same,MIC50,"[13]; S. pneumoniae, Number 19",1 mg/L
same,MIC90,"[13]; S. pneumoniae, Number 19",2 mg/L
same,MIC,[5]; [19],2 mg/L
same,ED50 (mg/kg body weight) PO,[6],>25 mg/kg body weight
same,MIC,[7]; [20],2 mg/L
same,Broth MIC +50% Sheep serum,[8],0.25 mg/L
same,Broth MIC Normal MH broth,[8],<0.1 mg/L
same,MIC,[9]; [21],0.25 mg/L
same,Geometric Mean of in vitro activity (MIC),[14]; E. faecalis,0.11 mg/L
same,MIC50,"[14]; E. faecalis, Number 7",0.064 mg/L
same,MIC90,"[14]; E. faecalis, Number 7",0.25 mg/L
same,MIC50,"[15]; G+ve, Number 49",0.5 mg/L
same,MIC90,"[15]; G+ve, Number 49",2 mg/L
same,Geometric Mean of in vitro activity (MIC),[15]; Gram +ve,0.31 mg/L
same,MIC,"[10]; VRE 6A, agar incorporation",<0.1 mg/L
same,MIC,"[11]; MRSA 562, Table 5",<0.1 mg/L
same,MIC,[11]; [22],<0.1 mg/L
same,MIC,"[12]; MRSA 33, agar incorporation",<0.1 mg/L
same,Geometric Mean of in vitro activity (MIC),[16]; S. aureus,0.11 mg/L
same,MIC50,"[16]; S. aureus, Number 8",0.064 mg/L
same,MIC90,"[16]; S. aureus, Number 8",0.25 mg/L
"CC(=O)NC[C@H]1CN(c2ccc(N3CCOCC3)c(F)c2)C(=O)O1 [Linezolid, reference compound]",MIC,"[1]; Streptococcus pyogenes, S. pyogenes 19615, agar incorporation, read-out: MIC",2 mg/L
same,MIC,"[2]; Staphylococcus aureus, S. aureus 25923, agar incorporation, read-out: MIC",2 mg/L
same,MIC,"[3]; Staphylococcus aureus, MRSA 15187, agar incorporation, read-out: MIC",1 mg/L
same,Agar MIC,[4],2 mg/L
same,MIC50,"[13]; Streptococcus pneumoniae, S. pneumoniae, Number 19, read-out: MIC50",0.5 mg/L
same,MIC90,"[13]; Streptococcus pneumoniae, S. pneumoniae, Number 19, read-out: MIC90",2 mg/L
same,MIC,"[13]; Streptococcus pneumoniae, S. pneumoniae",0.6 mg/L
same,MIC,"[5]; Streptococcus pneumoniae, S. pneum 6303, agar incorporation, read-out: MIC",2 mg/L
same,MIC,"[7]; Streptococcus pneumoniae, AB34, S. pneum AB 34, agar incorporation, read-out: MIC",4 mg/L
same,Broth MIC +50% Sheep serum,[8],2 mg/L
same,Broth MIC Normal MH broth,[8],1 mg/L
same,MIC,"[9]; Enterococcus faecalis, E. faecalis 29212, agar incorporation, read-out: MIC",2 mg/L
same,MIC50,"[14]; Enterococcus faecalis, E. faecalis, Number 7, read-out: MIC50",4 mg/L
same,MIC90,"[14]; Enterococcus faecalis, E. faecalis, Number 7, read-out: MIC90",16 mg/L
same,MIC,"[14]; Enterococcus faecalis, E. faecalis",4 mg/L
same,MIC50,"[15]; G+ve, Number 49, read-out: MIC50",2 mg/L
same,MIC90,"[15]; G+ve, Number 49, read-out: MIC90",4 mg/L
same,MIC,[15]; Gram +ve,1.25 mg/L
same,MIC,"[10]; Enterococcus, VRE 6A, agar incorporation, read-out: MIC",2 mg/L
same,MIC,"[11]; MRSA 562, Table 5",2 mg/L
same,MIC,"[11]; Staphylococcus aureus, MRSA 562, agar incorporation, Table 1, read-out: MIC",2 mg/L
same,MIC,"[12]; Staphylococcus aureus, MRSA 33, agar incorporation, read-out: MIC",2 mg/L
same,MIC50,"[16]; Staphylococcus aureus, S. aureus, Number 8, read-out: MIC50",2 mg/L
same,MIC90,"[16]; Staphylococcus aureus, S. aureus, Number 8, read-out: MIC90",4 mg/L
same,MIC,"[16]; Staphylococcus aureus, S. aureus",2.38 mg/L
"CN[C@H](CC(C)C)C(=O)N[C@H]1C(=O)N[C@@H](CC(N)=O)C(=O)N[C@H]2C(=O)N[C@H]3C(=O)N[C@H](C(=O)N[C@H](C(=O)O)c4cc(O)cc(O)c4-c4cc3ccc4O)[C@H](O)c3ccc(c(Cl)c3)Oc3cc2cc(c3O[C@@H]2O[C@H](CO)[C@@H](O)[C@H](O)[C@H]2O[C@H]2C[C@](C)(N)[C@H](O)[C@H](C)O2)Oc2ccc(cc2Cl)[C@H]1O [Vancomycin, reference compound]",MIC,"[1]; Streptococcus pyogenes, 19615",0.5 mg/L
same,MIC,"[2]; Staphylococcus aureus, 25923",1 mg/L
same,MIC,"[3]; Staphylococcus aureus, MRSA",0.5 mg/L
same,Agar MIC,[4],1 mg/L
same,MIC50,[13]; Streptococcus pneumoniae,0.5 mg/L
same,MIC90,[13]; Streptococcus pneumoniae,0.5 mg/L
same,MIC,[13]; Streptococcus pneumoniae,0.39 mg/L
same,MIC,"[5]; Streptococcus pneumoniae, 6303",0.5 mg/L
same,MIC,"[7]; Streptococcus pneumoniae, AB34",0.25 mg/L
same,Broth MIC +50% Sheep serum,[8],1 mg/L
same,Broth MIC Normal MH broth,[8],1 mg/L
same,MIC,"[9]; Enterococcus faecalis, 29212",4 mg/L
same,MIC50,[14]; Enterococcus faecalis,16 mg/L
same,MIC90,[14]; Enterococcus faecalis,16 mg/L
same,MIC,[14]; Enterococcus faecalis,9.75 mg/L
same,MIC50,[15],0.5 mg/L
same,MIC90,[15],16 mg/L
same,MIC,[15],0.93 mg/L
same,MIC,"[10]; Enterococcus, VRE",> 16 mg/L
same,MIC,"[11]; MRSA 562, Table 5",0.5 mg/L
same,MIC,"[11]; Staphylococcus aureus, MRSA",0.5 mg/L
same,MIC,"[12]; Staphylococcus aureus, MRSA",0.5 mg/L
same,MIC50,[16]; Staphylococcus aureus,1 mg/L
same,MIC90,[16]; Staphylococcus aureus,1 mg/L
same,MIC,[16]; Staphylococcus aureus,1 mg/L
